Data taken from ChEMBL document CHEMBL1155172, “Distribution of radioactivity in bone and related structures following administration of [14C]dalbavancin to New Zealand white rabbits” (Antimicrob Agents Chemother, 2007).

Tests used:
Blood [1] = assay: Drug level in New Zealand white rabbit blood assessed as [14C]dalbavancin level per gram of tissue at 20 mg/kg, iv after 168 hrs by autoradioluminography; assay type: ADME, organism-based, Oryctolagus cuniculus; design: dose 20 mg/kg, route intravenous; details: in vivo
[2] = Drug level in New Zealand white rabbit ligament assessed as [14C]dalbavancin level per gram of tissue at 20 mg/kg, iv after 72 hrs by autoradioluminography; assay type: ADME, organism-based, Oryctolagus cuniculus; design: dose 20 mg/kg, route intravenous; details: in vivo
[3] = Drug level in New Zealand white rabbit ligament assessed as [14C]dalbavancin level per gram of tissue at 20 mg/kg, iv after 24 hrs by autoradioluminography; assay type: ADME, organism-based, Oryctolagus cuniculus; design: dose 20 mg/kg, route intravenous; details: in vivo
Blood [4] = assay: Drug level in New Zealand white rabbit blood assessed as [14C]dalbavancin level per gram of tissue at 20 mg/kg, iv after 24 hrs by autoradioluminography; assay type: ADME, organism-based, Oryctolagus cuniculus; design: dose 20 mg/kg, route intravenous; details: in vivo
[5] = Drug level in New Zealand white rabbit epiphyseal plate assessed as [14C]dalbavancin level per gram of tissue at 20 mg/kg, iv after 24 hrs by autoradioluminography; assay type: ADME, organism-based, Oryctolagus cuniculus; design: dose 20 mg/kg, route intravenous; details: in vivo
Oryctolagus cuniculus [6] = assay: Plasma concentration in New Zealand white rabbit assessed as [14C]dalbavancin level per gram of tissue at 20 mg/kg, iv after 120 hrs by liquid scintillation counting method; assay type: ADME, organism-based; design: dose 20 mg/kg, route intravenous; details: in vivo
[7] = Drug level in New Zealand white rabbit bone assessed as [14C]dalbavancin level per gram of tissue at 20 mg/kg, iv after 120 hrs by liquid scintillation counting method; assay type: ADME, organism-based, Oryctolagus cuniculus, Bone element; design: dose 20 mg/kg, route intravenous; details: in vivo
[8] = Drug level in New Zealand white rabbit nucleus pulposus assessed as [14C]dalbavancin level per gram of tissue at 20 mg/kg, iv after 24 hrs by liquid scintillation counting method; assay type: ADME, organism-based, Oryctolagus cuniculus; design: dose 20 mg/kg, route intravenous; details: in vivo
[9] = Drug level in New Zealand white rabbit bone marrow assessed as [14C]dalbavancin level per gram of tissue at 20 mg/kg, iv after 168 hrs by autoradioluminography; assay type: ADME, organism-based, Oryctolagus cuniculus; design: dose 20 mg/kg, route intravenous; details: in vivo
Oryctolagus cuniculus [10] = assay: Plasma concentration in New Zealand white rabbit assessed as [14C]dalbavancin level per gram of tissue at 20 mg/kg, iv after 72 hrs by liquid scintillation counting method; assay type: ADME, organism-based; design: dose 20 mg/kg, route intravenous; details: in vivo
Oryctolagus cuniculus [11] = assay: Plasma concentration in New Zealand white rabbit assessed as [14C]dalbavancin level per gram of tissue at 20 mg/kg, iv after 12 hrs by liquid scintillation counting method; assay type: ADME, organism-based; design: dose 20 mg/kg, route intravenous; details: in vivo
[12] = Drug level in New Zealand white rabbit articular cartilage assessed as [14C]dalbavancin level per gram of tissue at 20 mg/kg, iv after 24 hrs by autoradioluminography; assay type: ADME, organism-based, Oryctolagus cuniculus; design: dose 20 mg/kg, route intravenous; details: in vivo
[13] = Drug level in New Zealand white rabbit epiphyseal plate assessed as [14C]dalbavancin level per gram of tissue at 20 mg/kg, iv after 336 hrs by autoradioluminography; assay type: ADME, organism-based, Oryctolagus cuniculus; design: dose 20 mg/kg, route intravenous; details: in vivo
[14] = Drug level in New Zealand white rabbit nucleus pulposus assessed as [14C]dalbavancin level per gram of tissue at 20 mg/kg, iv after 120 hrs by liquid scintillation counting method; assay type: ADME, organism-based, Oryctolagus cuniculus; design: dose 20 mg/kg, route intravenous; details: in vivo
[15] = Drug level in New Zealand white rabbit skeletal muscle assessed as [14C]dalbavancin level per gram of tissue at 20 mg/kg, iv after 72 hrs by autoradioluminography; assay type: ADME, organism-based, Oryctolagus cuniculus; design: dose 20 mg/kg, route intravenous; details: in vivo
Blood [16] = assay: Drug level in New Zealand white rabbit blood assessed as [14C]dalbavancin level per gram of tissue at 20 mg/kg, iv after 120 hrs by autoradioluminography; assay type: ADME, organism-based, Oryctolagus cuniculus; design: dose 20 mg/kg, route intravenous; details: in vivo
[17] = Drug level in New Zealand white rabbit compact bone assessed as [14C]dalbavancin level per gram of tissue at 20 mg/kg, iv after 24 hrs by autoradioluminography; assay type: ADME, organism-based, Oryctolagus cuniculus, Bone element; design: dose 20 mg/kg, route intravenous; details: in vivo
[18] = Drug level in New Zealand white rabbit articular cartilage assessed as [14C]dalbavancin level per gram of tissue at 20 mg/kg, iv after 120 hrs by autoradioluminography; assay type: ADME, organism-based, Oryctolagus cuniculus; design: dose 20 mg/kg, route intravenous; details: in vivo
[19] = Drug level in New Zealand white rabbit skeletal muscle assessed as [14C]dalbavancin level per gram of tissue at 20 mg/kg, iv after 24 hrs by autoradioluminography; assay type: ADME, organism-based, Oryctolagus cuniculus; design: dose 20 mg/kg, route intravenous; details: in vivo
[20] = Drug level in New Zealand white rabbit bone marrow assessed as [14C]dalbavancin level per gram of tissue at 20 mg/kg, iv after 72 hrs by liquid scintillation counting method; assay type: ADME, organism-based, Oryctolagus cuniculus; design: dose 20 mg/kg, route intravenous; details: in vivo
[21] = Drug level in New Zealand white rabbit periostium assessed as [14C]dalbavancin level per gram of tissue at 20 mg/kg, iv after 24 hrs by autoradioluminography; assay type: ADME, organism-based, Oryctolagus cuniculus, Periosteum; design: dose 20 mg/kg, route intravenous; details: in vivo
[22] = Drug level in New Zealand white rabbit meniscus assessed as [14C]dalbavancin level per gram of tissue at 20 mg/kg, iv after 72 hrs by autoradioluminography; assay type: ADME, organism-based, Oryctolagus cuniculus; design: dose 20 mg/kg, route intravenous; details: in vivo
[23] = Drug level in New Zealand white rabbit bone marrow assessed as [14C]dalbavancin level per gram of tissue at 20 mg/kg, iv after 168 hrs by liquid scintillation counting method; assay type: ADME, organism-based, Oryctolagus cuniculus; design: dose 20 mg/kg, route intravenous; details: in vivo
[24] = Drug level in New Zealand white rabbit bone assessed as [14C]dalbavancin level per gram of tissue at 20 mg/kg, iv after 72 hrs by liquid scintillation counting method; assay type: ADME, organism-based, Oryctolagus cuniculus, Bone element; design: dose 20 mg/kg, route intravenous; details: in vivo
[25] = Drug level in New Zealand white rabbit ligament assessed as [14C]dalbavancin level per gram of tissue at 20 mg/kg, iv after 120 hrs by autoradioluminography; assay type: ADME, organism-based, Oryctolagus cuniculus; design: dose 20 mg/kg, route intravenous; details: in vivo
[26] = Drug level in New Zealand white rabbit meniscus assessed as [14C]dalbavancin level per gram of tissue at 20 mg/kg, iv after 12 hrs by autoradioluminography; assay type: ADME, organism-based, Oryctolagus cuniculus; design: dose 20 mg/kg, route intravenous; details: in vivo
[27] = Drug level in New Zealand white rabbit synovial space assessed as [14C]dalbavancin level per gram of tissue at 20 mg/kg, iv after 72 hrs by autoradioluminography; assay type: ADME, organism-based, Oryctolagus cuniculus; design: dose 20 mg/kg, route intravenous; details: in vivo
[28] = Drug level in New Zealand white rabbit skeletal muscle assessed as [14C]dalbavancin level per gram of tissue at 20 mg/kg, iv after 336 hrs by autoradioluminography; assay type: ADME, organism-based, Oryctolagus cuniculus; design: dose 20 mg/kg, route intravenous; details: in vivo
[29] = Drug level in New Zealand white rabbit compact bone assessed as [14C]dalbavancin level per gram of tissue at 20 mg/kg, iv after 12 hrs by autoradioluminography; assay type: ADME, organism-based, Oryctolagus cuniculus, Bone element; design: dose 20 mg/kg, route intravenous; details: in vivo
[30] = Drug level in New Zealand white rabbit bone assessed as [14C]dalbavancin level per gram of tissue at 20 mg/kg, iv after 336 hrs by liquid scintillation counting method; assay type: ADME, organism-based, Oryctolagus cuniculus, Bone element; design: dose 20 mg/kg, route intravenous; details: in vivo
[31] = Drug level in New Zealand white rabbit ligament assessed as [14C]dalbavancin level per gram of tissue at 20 mg/kg, iv after 336 hrs by autoradioluminography; assay type: ADME, organism-based, Oryctolagus cuniculus; design: dose 20 mg/kg, route intravenous; details: in vivo
[32] = Drug level in New Zealand white rabbit articular cartilage assessed as [14C]dalbavancin level per gram of tissue at 20 mg/kg, iv after 336 hrs by autoradioluminography; assay type: ADME, organism-based, Oryctolagus cuniculus; design: dose 20 mg/kg, route intravenous; details: in vivo
[33] = Drug level in New Zealand white rabbit compact bone assessed as [14C]dalbavancin level per gram of tissue at 20 mg/kg, iv after 336 hrs by autoradioluminography; assay type: ADME, organism-based, Oryctolagus cuniculus, Bone element; design: dose 20 mg/kg, route intravenous; details: in vivo
[34] = Drug level in New Zealand white rabbit articular cartilage assessed as [14C]dalbavancin level per gram of tissue at 20 mg/kg, iv after 168 hrs by autoradioluminography; assay type: ADME, organism-based, Oryctolagus cuniculus; design: dose 20 mg/kg, route intravenous; details: in vivo
[35] = Drug level in New Zealand white rabbit synovial space assessed as [14C]dalbavancin level per gram of tissue at 20 mg/kg, iv after 24 hrs by autoradioluminography; assay type: ADME, organism-based, Oryctolagus cuniculus; design: dose 20 mg/kg, route intravenous; details: in vivo
Streptococcus = assay: Antibacterial activity against Streptococcus; assay type: functional
[36] = Drug level in New Zealand white rabbit nucleus pulposus assessed as [14C]dalbavancin level per gram of tissue at 20 mg/kg, iv after 12 hrs by liquid scintillation counting method; assay type: ADME, organism-based, Oryctolagus cuniculus; design: dose 20 mg/kg, route intravenous; details: in vivo
[37] = Drug level in New Zealand white rabbit bone marrow assessed as [14C]dalbavancin level per gram of tissue at 20 mg/kg, iv after 24 hrs by autoradioluminography; assay type: ADME, organism-based, Oryctolagus cuniculus; design: dose 20 mg/kg, route intravenous; details: in vivo

Drug uptake (Blood [1]): 5.33 µg/g
Drug uptake [2]: 4.56 µg
Drug uptake [3]: 8.64 µg/g
Drug uptake (Blood [4]): 14.49 µg
Drug uptake [5]: 18.7 µg/g
Cp (Oryctolagus cuniculus [6]): 2.78 µg
Drug uptake [7]: 3.46 µg/g
Drug uptake [8]: 0.76 µg/g
Drug uptake [9]: 18.9 µg
Cp (Oryctolagus cuniculus [10]): 4.5 µg
Cp (Oryctolagus cuniculus [11]): 46.88 µg
Drug uptake [12]: 21.4 µg/g
Drug uptake [13]: 8.42 µg/g
Drug uptake [14]: 0.75 µg/g
Drug uptake [15]: 1.25 µg
Drug uptake (Blood [16]): 1.5 µg/g
Drug uptake [17]: 1.56 µg/g
Drug uptake [18]: 6.56 µg
Drug uptake [19]: 1.92 µg
Drug uptake [20]: 12.7 µg/g
Drug uptake [21]: 11.35 µg
Drug uptake [22]: 8.04 µg
Drug uptake [23]: 16.1 µg/g
Drug uptake [24]: 3.94 µg/g
Drug uptake [25]: 3.68 µg/g
Drug uptake [26]: 19.19 µg
Drug uptake [27]: 1.49 µg/g
Drug uptake [28]: 0.8 µg/g
Drug uptake [29]: 1.56 µg/g
Drug uptake [30]: 1.96 µg/g
Drug uptake [31]: 1.43 µg
Drug uptake [32]: 4.84 µg
Drug uptake [33]: 0.24 µg/g
Drug uptake [34]: 7.48 µg/g
Drug uptake [35]: 4.25 µg
MIC90 (Streptococcus): ≤ 0.03 µg/mL
Drug uptake [36]: 0.86 µg/g
Drug uptake [37]: 32.1 µg/g
Compound: CN[C@H]1C(=O)N[C@@H]2Cc3ccc(cc3)Oc3cc4cc(c3O[C@@H]3O[C@H](C(=O)O)[C@@H](O)[C@H](O)[C@H]3NC(=O)CCCCCCCCC(C)C)Oc3ccc(cc3Cl)[C@@H](O)[C@@H]3NC(=O)[C@H](NC(=O)[C@@H]4NC(=O)[C@@H](NC2=O)c2cc(cc(O)c2Cl)Oc2cc1ccc2O)c1ccc(O)c(c1)-c1c(O[C@H]2O[C@H](CO)[C@@H](O)[C@H](O)[C@@H]2O)cc(O)cc1[C@@H](C(=O)NCCCN(C)C)NC3=O [DALBAVANCIN]
